Reference: US6541238B1, “Recombinant cellulose synthase” (Board of Regents, The University of Texas Systems, priority 1990, dated 2003)

Assays:
[1] = tested on: DNA from A. xylinum ATCC 53582 and ATCC 23769; assay: DNA-DNA hybridization of 17-mer oligonucleotide probes with HindIII-digested total DNA; assay type: binding, Acetobacter xylinum; settings: stringent hybridization conditions; HindIII digest
Procedure: Hybridization of the oligonucleotide probes with A. xylinum DNA was carried out using the eight oligonucleotides that were thus synthesized. […] In order to accomplish these studies, total DNA from A. xylinum ATCC 53582, A. xylinum ATCC 23769, and E. coil HB101 (a common strain of E. coli used in recombinant DNA experiments) was digested with HindIII and the fragments were separated on an agarose gel. After separation, the fragments were transferred by capillary action to a nylon membrane (GeneScreen; NEN Research Products) according to the procedure of Reed and Mann (1985). The DNA thus transferred was next hybridized with the ^32P-labeled oligonucleotide of the invention using standard procedures. Hybridization was accomplished in a solution with 5×SSC [1×SSC: 0.15M NaCl, 0.015M sodium citrate] at 45° C. for 16-24 hours. The filters were then washed with a solution containing reduced salt concentration. In all cases, the hybridization temperature was 5-7° C. below the dissociation temperature as described by Suggs, et al. (1981) applying the formula Td=2(A+T)+4(G+C).

[2] = target: T1, 83 kd polypeptide of cellulose synthase (Komagataeibacter xylinus, UniProt P0CW87); assay: Photoaffinity labeling of purified cellulose synthase with [β-32P]5N3UDP-glc; assay type: binding, Acetobacter xylinum
T1 construct: endogenous in cells; host or cells: Acetobacter xylinum ATCC 53582; membranes solubilized with detergent, enzyme purified by cellulose entrapment
T1 sequence (P0CW87 1-723): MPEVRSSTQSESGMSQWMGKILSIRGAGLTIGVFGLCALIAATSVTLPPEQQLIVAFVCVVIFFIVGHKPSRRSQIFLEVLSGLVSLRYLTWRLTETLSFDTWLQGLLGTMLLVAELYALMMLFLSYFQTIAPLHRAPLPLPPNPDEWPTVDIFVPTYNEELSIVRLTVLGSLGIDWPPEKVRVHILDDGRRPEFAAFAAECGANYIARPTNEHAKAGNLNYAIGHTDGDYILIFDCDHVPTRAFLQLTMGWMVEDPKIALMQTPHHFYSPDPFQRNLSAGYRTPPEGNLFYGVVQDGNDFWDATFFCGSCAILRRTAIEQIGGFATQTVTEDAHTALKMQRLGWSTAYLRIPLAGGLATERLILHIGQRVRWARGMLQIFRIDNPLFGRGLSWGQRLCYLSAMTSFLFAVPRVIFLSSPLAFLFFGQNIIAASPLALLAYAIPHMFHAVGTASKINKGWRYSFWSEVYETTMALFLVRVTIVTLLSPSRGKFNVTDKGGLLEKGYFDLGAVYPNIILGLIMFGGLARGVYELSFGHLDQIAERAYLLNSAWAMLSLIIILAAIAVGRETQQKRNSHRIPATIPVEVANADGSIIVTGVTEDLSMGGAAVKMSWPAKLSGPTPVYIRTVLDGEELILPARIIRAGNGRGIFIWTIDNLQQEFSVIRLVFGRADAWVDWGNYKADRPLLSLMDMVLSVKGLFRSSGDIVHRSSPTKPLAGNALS
T1 sequence (P0CW87 742-1550 partner limits assumed): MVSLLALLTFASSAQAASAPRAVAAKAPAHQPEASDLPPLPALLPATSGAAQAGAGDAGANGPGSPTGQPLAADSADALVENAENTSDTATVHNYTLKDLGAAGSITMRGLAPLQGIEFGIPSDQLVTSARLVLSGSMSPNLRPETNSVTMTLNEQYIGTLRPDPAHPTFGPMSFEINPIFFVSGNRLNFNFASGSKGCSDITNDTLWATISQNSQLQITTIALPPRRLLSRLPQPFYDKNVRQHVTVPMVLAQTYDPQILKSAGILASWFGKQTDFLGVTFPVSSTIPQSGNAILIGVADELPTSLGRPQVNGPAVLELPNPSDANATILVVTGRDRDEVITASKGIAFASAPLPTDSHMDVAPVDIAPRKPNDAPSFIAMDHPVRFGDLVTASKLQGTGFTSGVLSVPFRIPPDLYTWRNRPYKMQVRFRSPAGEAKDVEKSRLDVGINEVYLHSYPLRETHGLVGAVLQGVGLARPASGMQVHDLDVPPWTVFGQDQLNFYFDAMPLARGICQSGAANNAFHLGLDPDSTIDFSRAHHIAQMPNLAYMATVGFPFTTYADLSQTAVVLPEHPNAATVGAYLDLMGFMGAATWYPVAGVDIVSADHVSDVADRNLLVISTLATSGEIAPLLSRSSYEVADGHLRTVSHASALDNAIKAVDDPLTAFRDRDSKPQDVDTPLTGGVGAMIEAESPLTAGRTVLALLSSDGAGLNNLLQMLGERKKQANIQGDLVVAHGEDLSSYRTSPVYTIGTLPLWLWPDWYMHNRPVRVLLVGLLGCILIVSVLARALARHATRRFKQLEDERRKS
Procedure: In addition to 20 μl of activator for cellulose synthase, each reaction mixture contained 50 mM Tris-HCl, 10 mM MgCl2, 1 mM CaCl2, 1 mM EDTA, the indicated protein quantity of enzyme sample, and 20 μM of [β-^32P]5N3UDP-glc (specific activity, 24 mCi/μmol) in a final reaction volume of 50 μl at pH 8.0-8.5. For competition experiments, the competitor, namely UDP-glc, was added at final concentrations of 0, 50, 100, and 300 μM, respectively. For saturation studies, [B-^32P]5N3UDP-glc was added at final concentrations of 20, 50, 100, 300 and 500 μM, respectively. […] Reactions were terminated by the addition of 0.3 ml of 7% perchloric acid. […] The Coomassie blue stained gel was dried and autoradiographed. Autoradiography was performed at −80° C. with Kodak X-Omat AR film and a Dupont Cronex intensifying screen. The molecular mass standards (Bio-Rad) were phosphorylase b (97kd), bovine serum albumin (66 kd), ovalbumin (45 kd), and carbonic anhydrase (31 kd).
The quantitation of the autoradiographs was measured by grey value discrimination of a digitized image (recorded on a Kontron/Zeiss IBAS Image Processing System).

[3] = target: cellulose synthase of Acetobacter xylinum, Triton X-100-solubilized enzyme preparation (TS) (Acetobacter xylinum ATCC 53582); assay: Con A-Sepharose 4B column chromatography of TS; bound enzyme eluted with 0.3 M methyl alpha-D-mannopyranoside
cellulose synthase = target: T2, cellulose synthase (Komagataeibacter xylinus, UniProt P0CW87); assay: Cellulose synthase enzyme assay (UDP-[14C]glc into alkali-insoluble material); assay type: biochemical, Acetobacter xylinum
T2 construct: endogenous in cells; host or cells: Acetobacter xylinum; washed or trypsinized membranes, Triton X-100, n-octyl glucoside or digitonin extracts, entrapment pellets EP1 and EP2
T2 sequence (P0CW87 1-723): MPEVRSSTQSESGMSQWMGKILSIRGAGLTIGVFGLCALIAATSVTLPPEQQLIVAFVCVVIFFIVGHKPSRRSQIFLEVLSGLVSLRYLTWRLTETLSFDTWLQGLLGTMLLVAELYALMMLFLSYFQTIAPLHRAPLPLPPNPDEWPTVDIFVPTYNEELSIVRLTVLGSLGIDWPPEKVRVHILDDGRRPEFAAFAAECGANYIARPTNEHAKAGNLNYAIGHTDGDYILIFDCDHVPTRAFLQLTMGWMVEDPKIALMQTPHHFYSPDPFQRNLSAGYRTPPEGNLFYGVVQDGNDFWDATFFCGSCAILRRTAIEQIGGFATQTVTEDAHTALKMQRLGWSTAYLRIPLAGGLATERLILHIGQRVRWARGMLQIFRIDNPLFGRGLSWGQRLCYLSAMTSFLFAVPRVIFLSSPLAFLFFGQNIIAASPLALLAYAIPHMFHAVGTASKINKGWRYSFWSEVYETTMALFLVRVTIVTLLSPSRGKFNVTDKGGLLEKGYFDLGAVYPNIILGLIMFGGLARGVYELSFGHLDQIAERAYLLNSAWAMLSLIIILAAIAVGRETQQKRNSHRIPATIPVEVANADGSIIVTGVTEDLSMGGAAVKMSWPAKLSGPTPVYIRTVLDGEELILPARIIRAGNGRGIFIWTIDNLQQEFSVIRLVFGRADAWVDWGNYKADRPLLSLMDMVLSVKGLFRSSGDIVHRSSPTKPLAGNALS
T2 sequence (P0CW87 742-1550 partner limits assumed): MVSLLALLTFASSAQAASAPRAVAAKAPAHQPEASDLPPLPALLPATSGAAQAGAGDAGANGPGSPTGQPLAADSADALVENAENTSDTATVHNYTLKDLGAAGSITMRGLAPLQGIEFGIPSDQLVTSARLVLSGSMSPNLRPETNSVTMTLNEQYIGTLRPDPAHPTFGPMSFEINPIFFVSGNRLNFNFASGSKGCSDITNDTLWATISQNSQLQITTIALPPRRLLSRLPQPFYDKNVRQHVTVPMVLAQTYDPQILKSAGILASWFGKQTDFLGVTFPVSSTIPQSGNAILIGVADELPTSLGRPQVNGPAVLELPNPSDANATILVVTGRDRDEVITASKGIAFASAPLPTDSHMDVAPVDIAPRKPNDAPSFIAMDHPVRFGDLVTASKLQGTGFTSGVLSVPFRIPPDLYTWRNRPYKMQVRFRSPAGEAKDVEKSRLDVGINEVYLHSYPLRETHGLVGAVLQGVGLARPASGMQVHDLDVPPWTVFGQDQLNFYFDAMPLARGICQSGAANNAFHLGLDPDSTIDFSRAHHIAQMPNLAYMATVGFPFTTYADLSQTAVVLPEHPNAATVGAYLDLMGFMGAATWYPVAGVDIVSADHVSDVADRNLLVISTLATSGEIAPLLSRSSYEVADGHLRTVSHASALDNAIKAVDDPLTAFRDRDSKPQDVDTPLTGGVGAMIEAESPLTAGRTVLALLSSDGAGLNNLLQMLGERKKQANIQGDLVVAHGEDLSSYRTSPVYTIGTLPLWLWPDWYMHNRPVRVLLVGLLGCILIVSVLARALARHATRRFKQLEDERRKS
Procedure: Enzyme Assay—Assays contained a final volume of […]: 20 μl of 0.5 M Tris-HCl (pH 9.6) containing 50 mM MgCl2 and 5 mM EDTA, 20 μl of 0.1 M MgCl2, 20 μl of 10 MM CaCl2, 25 μl of TME buffer, 25 μl of H2O, 20 μl of crude Gx, and 50 μl of enzyme sample. […] The reaction was stopped with 2 ml of 0.5 M NaOH, and the radioactivity in alkali-insoluble materials was counted after filtration through glass-fiber filters, as described in detail (Bureau and Brown 1987).
Protein Determination—Protein concentrations were determined according to the method of Bradford (1976), using the protein assay kit of Bio-Rad Laboratories. A modification of the Lowry procedure (Markwell 1978) was used only with membrane preparations. In both cases, bovine serum albumin was used as a standard.

5′-ATGTCICAGTGGATGGG-3′ [83-1G] was tested, and the “hybridization (homology) with A. xylinum DNA” value [1] was “showed homology with a single HindIII fragment”.

[N-]=[N+]=Nc1cn([C@@H]2O[C@H](COP(=O)(O)OP(=O)(O)O[C@H]3O[C@H](CO)[C@@H](O)[C@H](O)[C@H]3O)[C@@H](O)[C@H]2O)c(=O)[nH]c1=O [[β-^32P]5N3UDP-glc] was tested, and the “probe concentration at which saturation of photoinsertion was being obtained” value ([2]; 83 kd protein band) was “above 100 μM” and the Kd ([2]; probe 20-500 μM, 83 kd polypeptide, read-out: kd value, saturation of cellulose synthase photolabeling) was 68 µM.

In the case of Nc1nc2c(ncn2[C@@H]2O[C@@H]3COP(=O)(O)O[C@H]4[C@@H](O)[C@H](n5cnc6c(=O)[nH]c(N)nc65)O[C@@H]4COP(=O)(O)O[C@H]3[C@H]2O)c(=O)[nH]1 [c-di-GMP, bis-(3′,5′)-cyclic diguanylic acid], the “increase of photoincorporation into the 83 kd band in the presence of activator” value ([2]; purified preparation, FIG. 8 lane 6 vs lane 5) is reported as 45%.

“Concanavalin A (Con A) Sepharose 4B (from UniProt P02866 30-281)” gave a total enzyme activity recovered on elution from the Con A-Sepharose column [3] greater than 90%.

B1: trypsin: trypsin (EC 3.4.21.4), Sigma (protein, UniProt P00760 24-246, looked up)
Serine protease 1: IVGGYTCGANTVPYQVSLNSGYHFCGGSLINSQWVVSAAHCYKSGIQVRLGEDNINVVEGNEQFISASKSIVHPSYNSNTLNNDIMLIKLKSAASLNSRVASISLPTSCASAGTQCLISGWGNTKSSGTSYPDVLKCLKAPILSDSSCKSAYPGQITSNMFCAGYLEGGKDSCQGDSGGPVVCSGKLQGIVSWGSGCAQKNKPGVYTKVCNYVSWIKQTIASN
For B1, the “effect of trypsin on enzyme activity of washed membranes or TS” value (cellulose synthase; 30 minutes at 25° C.) was “did not effect enzyme activity” and the “effect of trypsin on enzyme activity of the EP1 fraction from DS” value (cellulose synthase; 1 hour at 25° C.) was “enzyme activity was still maintained”.
